Literature values in patent US20230404885A1, “EPIDERMAL STEM CELL PROLIFERATION-PROMOTING AGENT” (Shiseido Company, Ltd., priority 2020, published 2023).

What was measured:
[1] = biological target: T1, MMP-1 (Homo sapiens, UniProt P03956); conditions: known
T1 sequence (P03956 100-469): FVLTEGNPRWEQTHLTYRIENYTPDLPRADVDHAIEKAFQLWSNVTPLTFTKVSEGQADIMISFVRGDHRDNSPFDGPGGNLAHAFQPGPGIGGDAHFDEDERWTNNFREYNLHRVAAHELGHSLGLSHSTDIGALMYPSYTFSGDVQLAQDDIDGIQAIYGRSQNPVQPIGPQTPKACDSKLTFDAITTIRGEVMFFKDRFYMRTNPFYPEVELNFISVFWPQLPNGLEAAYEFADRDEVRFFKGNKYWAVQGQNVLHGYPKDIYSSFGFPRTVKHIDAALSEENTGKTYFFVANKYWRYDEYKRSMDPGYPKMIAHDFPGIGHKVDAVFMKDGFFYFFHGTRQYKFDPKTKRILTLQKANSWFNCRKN

[2] = biological target: T2, heparanase (Homo sapiens, UniProt Q9Y251); conditions: known, see JP 2014-111640
T2 sequence (Q9Y251 36-543): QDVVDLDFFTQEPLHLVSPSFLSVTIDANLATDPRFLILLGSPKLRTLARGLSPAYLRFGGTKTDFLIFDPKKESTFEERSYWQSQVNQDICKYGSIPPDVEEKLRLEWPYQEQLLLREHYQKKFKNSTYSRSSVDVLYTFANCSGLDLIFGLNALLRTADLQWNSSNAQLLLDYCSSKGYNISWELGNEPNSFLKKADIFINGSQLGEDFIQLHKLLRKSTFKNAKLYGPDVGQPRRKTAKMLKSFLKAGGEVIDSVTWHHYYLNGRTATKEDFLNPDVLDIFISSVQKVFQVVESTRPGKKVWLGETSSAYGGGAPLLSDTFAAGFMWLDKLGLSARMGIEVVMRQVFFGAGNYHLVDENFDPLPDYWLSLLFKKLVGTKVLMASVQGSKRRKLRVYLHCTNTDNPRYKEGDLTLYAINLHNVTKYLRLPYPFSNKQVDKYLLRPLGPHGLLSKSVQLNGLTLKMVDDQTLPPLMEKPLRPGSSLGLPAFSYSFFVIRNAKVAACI

[3] = biological target: T3, MMP-2 (Homo sapiens, UniProt P08253); conditions: known
T3 sequence (P08253 110-660): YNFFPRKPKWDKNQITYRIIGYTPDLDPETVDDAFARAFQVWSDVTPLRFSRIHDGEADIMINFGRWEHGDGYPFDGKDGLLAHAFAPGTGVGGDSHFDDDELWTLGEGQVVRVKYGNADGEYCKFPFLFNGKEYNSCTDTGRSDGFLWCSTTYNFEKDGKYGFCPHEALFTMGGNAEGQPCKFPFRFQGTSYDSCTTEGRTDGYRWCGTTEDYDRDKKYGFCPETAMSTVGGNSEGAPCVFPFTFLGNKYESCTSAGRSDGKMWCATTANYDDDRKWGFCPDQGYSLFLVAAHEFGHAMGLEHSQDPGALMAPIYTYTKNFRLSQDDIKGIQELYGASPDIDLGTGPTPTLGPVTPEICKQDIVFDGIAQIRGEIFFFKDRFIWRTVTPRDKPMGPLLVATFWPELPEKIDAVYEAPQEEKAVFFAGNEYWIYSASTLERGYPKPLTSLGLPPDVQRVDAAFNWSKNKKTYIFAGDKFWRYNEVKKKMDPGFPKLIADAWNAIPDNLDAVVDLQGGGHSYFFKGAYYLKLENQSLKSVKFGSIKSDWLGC

[4] = biological target: MMP-9 (Homo sapiens, UniProt P14780); conditions: known
Sequence of MMP-9 (P14780 94-707): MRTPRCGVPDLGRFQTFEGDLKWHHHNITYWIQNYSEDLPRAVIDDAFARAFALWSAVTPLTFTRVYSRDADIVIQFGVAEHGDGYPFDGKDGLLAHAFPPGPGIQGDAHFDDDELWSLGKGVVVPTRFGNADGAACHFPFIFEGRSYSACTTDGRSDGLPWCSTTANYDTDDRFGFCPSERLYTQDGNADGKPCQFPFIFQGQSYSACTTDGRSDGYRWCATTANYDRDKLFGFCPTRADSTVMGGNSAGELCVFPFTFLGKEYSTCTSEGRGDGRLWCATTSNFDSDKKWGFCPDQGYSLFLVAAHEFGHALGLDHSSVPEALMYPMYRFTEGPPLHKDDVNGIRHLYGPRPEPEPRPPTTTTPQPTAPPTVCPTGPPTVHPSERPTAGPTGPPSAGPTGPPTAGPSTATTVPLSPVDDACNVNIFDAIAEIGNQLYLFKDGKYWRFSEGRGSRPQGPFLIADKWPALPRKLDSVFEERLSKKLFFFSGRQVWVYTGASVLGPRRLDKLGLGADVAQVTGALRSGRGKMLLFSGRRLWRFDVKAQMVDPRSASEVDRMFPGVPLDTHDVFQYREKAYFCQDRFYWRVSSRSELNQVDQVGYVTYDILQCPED

- effect on activity of MMP-1 [1]: does not affect
- heparanase activity inhibition [2]: inhibitors of the heparanase activity
- effect on activity of MMP-2 [3]: does not affect
- MMP-9 inhibition [4]: inhibits
SMILES: O=C1NCCN1CCO [S173, 1-(2-hydroxyethyl)-2-imidazolidinone]
